Values joined by “and” are separate entries in the source; they are usually repeats but may differ in a detail not shown here. Equal values may be shown once. Read-outs that look alike come from different tables or passages of the source.
Columns and labels:
Experiment in all cases: Postemergence herbicidal activity, greenhouse trial (visual injury 0-100%)
Assay type in all cases: in vivo
[1] = tested on: pigweed (Amaranthus retroflexus, AMARE); settings: Amaranthus retroflexus, post-emergence, read-out: % visual injury Obs
Method in brief: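 Herbicide mixtures (an EC-formulated compound plus a partner herbicide) are sprayed at 187 L/ha on greenhouse plants at the second or third true leaf stage, with rates in g ae/ha for (a) and g ai/ha for (b).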

[2] = tested on: spring rape (Brassica napus, BRSNN)
[3] = tested on: winter rape (Brassica napus, BRSNW)

Nc1c(F)c(-c2ccc3cc[nH]c3c2F)nc(C(=O)O)c1Cl [Compound 1]
pest or weed control at 5 g/ha ([1]; 5 g ae/ha): 95%
pest or weed control at 10 g/ha ([1]; 10 g ae/ha): 97%
pest or weed control at 5 g/ha ([1]; AMARE, Compound 1 5 g ae/ha): 75%
pest or weed control at 10 g/ha ([1]; AMARE, Compound 1 10 g ae/ha): 97%
% visual injury Obs ([2]; 5 g ae/ha): 50%
% visual injury Obs ([2]; BRSNN, Compound 1 5 g ae/ha): 70%
% visual injury Obs ([3]; 5 g ae/ha): 30% and 40%
% visual injury Obs ([3]; 10 g ae/ha): 45%
% visual injury Obs ([3]; BRSNW, Compound 1 5 g ae/ha): 50% and 40%
% visual injury Obs ([3]; BRSNW, Compound 1 10 g ae/ha): 45%
